Two compounds from patent US20240336900A1, “METHODS AND COMPOSITIONS RELATED TO MODIFIED METHYLTRANSFERASES AND ENGINEERED BIOSENSORS” (BOARD OF REGENTS, THE UNIVERSITY OF TEXAS SYSTEM, priority 2023, published 2024) can be followed below.

Assay [1] has as its target T1, RamR (Salmonella typhimurium, UniProt Q8ZR43).
T1 construct: expressed in transfected cells; host or cells: E. coli DH10B
Briefly: Biosensor response assay, wild-type RamR with Pramr-GFP reporter. The format is cell-based. The conditions noted are these: pReg-RamR + Pramr-GFP, upon induction. The text has this: The wild-type RamR sensor was constitutively expressed on one plasmid (pReg-RamR) in parallel with another plasmid bearing the regulator's cognate promoter upstream of the sfGFP gene (Pramr-GFP). […] To better understand this promiscuous binding activity, norbelladine was docked within the ligand binding pocket of RamR using GNINA 1.0 […], and a conformational pose was identified whereby the phenol moiety of norbelladine forms hydrogen bonds with S137 and T85, while the catechol moiety forms a hydrogen bond with K63.
The pReg-RamR and Pramr-GFP plasmids were co-transformed into DH10B cells, which were then plated on LB agar plates containing appropriate antibiotics. Three separate colonies were picked for each transformation and were grown overnight. The following day, 20 μL of each culture was then used to inoculate six separate wells in a 2-mL 96-deep-well plate (Corning, P-DW-20-C-S) sealed with an AeraSeal film (Excel Scientific) containing 900 μL LB medium, one for each test ligand and a solvent control. […] One hundred microliters of the cell resuspension for each condition was transferred to a 96-well microtiter plate (Corning, 3904), from which the fluorescence (excitation, 485 nm; emission, 509 nm) and absorbance (600 nm) were measured using the Tecan Infinite M1000 plate reader.

For assay [2], the target named is T2, 4NB2.1 biosensor (Salmonella typhimurium, UniProt Q8ZR43, C134D/K63T/L66M/S137G).
T2 construct: expressed in transfected cells; host or cells: E. coli DH10B
Briefly: Dose response of the evolved 4NB2.1 biosensor to 4NB (fluorescence, RFU/OD). Format: cell-based, Escherichia coli. The protocol:
For sensor variant validation, the subcloned pReg-RamR vectors expressing the sensor variants were transformed into DH10B cells expressing Pramr-GFP. These cultures were then assayed, as described in Biosensor response assay, using eight different concentrations of the 4NB.
Glycerol stocks (20% glycerol) of strains containing the plasmids of interest were inoculated into 1 ml LB medium and grown overnight at 37° C. Twenty microliters of overnight culture was seeded into 900 μl LB medium containing ampicillin and chloramphenicol in a 2-ml 96-deep-well plate sealed with an AeraSeal film. Following growth at 37° C. and 250 r.p.m. for 2 h, cultures were induced with 100 μl of an LB medium solution containing appropriate antibiotics and the inducer molecule dissolved in 10 μl DMSO. Cultures were grown for an additional 4 h at 37° C. and 250 r.p.m. and subsequently centrifuged (3,500 g, 4° C., 10 min). Supernatant was removed, and cell pellets were resuspended in 1 ml PBS. The cell resuspension (100 μl) for each condition was transferred to a 96-well microtiter plate, from which the fluorescence (excitation, 485 nm; emission, 509 nm) and absorbance (600 nm) were measured using the Tecan Infinite M1000 plate reader.
Bar graphs, fluorescence and growth curves, dose-response functions were all plotted in Python 3.6.9 using Matplotlib. Dose-response curves and EC50 values were estimated by fitting to the Hill equation y=d+(a−d)xb(cb+xb)−1 (where y=output signal, b=Hill coefficient, x=ligand concentration, d=background signal, a=maximum signal and c=EC50), with the scipy.optimize.curve_fit library in Python.

T2 sequence (Q8ZR43 other isoform, or with tags, fused parts or gaps K63T/L66M/C134D/S137G): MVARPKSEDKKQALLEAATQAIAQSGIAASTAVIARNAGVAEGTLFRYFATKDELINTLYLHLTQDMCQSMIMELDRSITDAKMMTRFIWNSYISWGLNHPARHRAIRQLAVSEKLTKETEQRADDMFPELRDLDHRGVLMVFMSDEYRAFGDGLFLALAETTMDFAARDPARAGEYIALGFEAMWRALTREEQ
T1 sequence (Q8ZR43 2-193, added parts left off): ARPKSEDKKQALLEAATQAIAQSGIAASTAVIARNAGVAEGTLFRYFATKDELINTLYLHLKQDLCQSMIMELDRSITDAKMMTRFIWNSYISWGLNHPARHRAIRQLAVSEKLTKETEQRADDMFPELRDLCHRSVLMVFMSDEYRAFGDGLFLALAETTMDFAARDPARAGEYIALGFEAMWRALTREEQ

Regarding `Oc1ccc(CCNCc2ccc(O)c(O)c2)cc1` [norbelladine], in assay [1], the increase in fluorescence is reported as 4.4 fold.
As for `COc1ccc(CNCCc2ccc(O)cc2)cc1O` [4NB, 4-O'Methylnorbelladine], the increase in fluorescence in assay [1] was 3.8 fold. Further, the 4NB2.1 biosensor measurement in assay [2] (1 uM 4NB supplemented into media) is 200.81 RFU/OD; in assay [2] (2.5 uM 4NB supplemented into media) it was 240.62 RFU/OD; in assay [2] (5 uM 4NB supplemented into media) it was 395.69 RFU/OD; in assay [2] (10 uM 4NB supplemented into media), 944.28 RFU/OD; in assay [2] (25 uM 4NB supplemented into media) it was 5648.44 RFU/OD; in assay [2] (50 uM 4NB supplemented into media) it was 21194.72 RFU/OD. Also, the 4NB2.1 biosensor measurement in assay [2] (100 uM 4NB supplemented into media) is on record as 43800.94 RFU/OD; in assay [2] (250 uM 4NB supplemented into media), 64506.12 RFU/OD; in assay [2] (500 uM 4NB supplemented into media), 67029.6 RFU/OD; in assay [2] (1000 uM 4NB supplemented into media), 62040.21 RFU/OD. In assay [2] (biosensor developed by directed evolution), the EC50 (as a rule, the concentration giving half of the maximal effect) is 20 µM.
